Experimental data as given in patent EP0032564A1, “Pharmaceutical use of caroverine and/or salts of caroverine, as well as salts of caroverine with xanthine acid remainders and nicotinic acid remainder” (MEDICHEMIE AG, priority 1979, dated 1981).
Where a name gives a salt, the structure may show the parent alone.

Tests used:
Maus = assay: Acute toxicity in the mouse (new caroverine salts); type: in vivo; settings: for Akute Toxizität, observation: in vivo; for Letale Dosis: mouse, i.p.
Experimental: Letale Dosis: • 200 mg/kg i.p..

Ratten = assay: Diuretic effect in rats, method of Lipschitz et al. (Na excretion score); type: in vivo; settings: 20 mg/kg p.os, quotient of Na excretion after test substance to Na excretion of control
From the text: Diese Untersuchung an Ratten wurde nach der Methode von Lipschitz et al., j.p.e.t. 79, 97-110, 1954, durchgeführt.
Der errechnete Score entspricht einem Quotienten aus Na-Ausscheidungen nach der Testsubstanz durch Na-Ausscheidung des Kontroll-Leerwertes.
Die Untersuchung an Ratten wurde wie unter 1. durchgeführt. Für den diuretischen Wirkungs-Score gilt gleiches.

Thrombozytenaggregation [1] = assay: Collagen-induced platelet aggregation in platelet-rich plasma, turbidimetry; type: cell-based, Kaninchen
From the text: Thrombozytenreiches Plasma wurde aus citriertem Kaninchenblut gewonnen. Die Thrombozytenaggregation wurde durch Collagen aus Rinder- Achillessehnen induziert, worauf der Aggregations-Hemmeffekt durch optische Trübungsmessung (Turbidimetrie) untersucht und quantifiziert werden konnte.
Bei diesen Diagrammen handelt es sich um Aufnahmen des zeitlichen Verlaufes einer optischen Messgrösse als Mass eines durch das Präparat tretenden Lichtanteils, entsprechend einem reziproken Mass für den Agglutinations- oder Aggregationsgrad. Die verschiedenen Messkurven für je eine Wirksubstanz entsprechen unter- schiedlichen molaren Konzentrationen in Mikromol des Wirkstoffes als Parameter. Die erste Messkurve in Fig. 1 entspricht einem Kontroll-Leerversuch.

[2] = test system: Meerschweinchen-Lungenpräparat; assay: Bronchodilator effect on guinea pig lung preparation (perfusion flow rate); settings: in vitro, 100 µg/ml
Agonisten (Atropin) = assay: Anticholinergic effect in vitro, guinea pig; design: species or system Meerschweinchen; settings: 10 µg/ml
Experimental: In vitro ergab sich am Meerschweinchen mit einer Dosis von 10 µg/ml eine mehr als 80 %ige Hemmung des verwendeten Agonisten (Atropin).

[3] = test system: anemische Decerebrationsstarre; assay: Inhibition of anemic decerebrate rigidity in rats, method of Fukuda et al.; type: in vivo, Wister-Ratten; settings: male rats, i.v.; for ED50: Rattus norvegicus, iv, read-out: Dosis für 50%ige Inhibierung; for ED50 / Zeit für 50%ige Erholung: anemic decerebrate rigidity
From the text: Die Untersuchungen wurden ausgeführt nach der Methode von Fukuda et al. (Japanese Journal of Pharmacology, Band 24, Seiten 810 - 813, 1974).
Es wurden männliche Wister-Ratten mit einem Köpergewicht von 280 - 380 g verwendet. Die Tiere wurden mit Aether betäubt und am Rücken befestigt. Nach Freilegen der Luft- und Speiseröhre sowie der beiderseitigen, gemeinsamen Carotisarterien wurde die Luftröhre kanüliert und die Speiseröhre abgetrennt. Das Hinterhauptbein wurde durch Abschaben der anhängenden Muskulatur freigelegt. Nach beidseitigem Abbinden der gemeinsamen Carotisarterien wurde im mittleren Teil des Hinterhauptbeines eine Oeffnung von 5 mm Durchmesser trepaniert, um die Basilararterie sichtbar zu machen. Die dura mater wurde längs der Basilararterie durchschnitten und letztere mit einem Coagulator ausgeätzt. Unmittelbar nach Beendigung dieser Massnahmen wurde die Anästhesie unterbrochen. Innerhalb von 30-min entwickelte sich Starre, und es trat eine deutliche Streckung der Extremitäten, des Nackens und des Schwanzes ein. Die Streckung der Vordergliedmassen wurde mit einem Dehnungsmessstreifen erfasst. 50 min nach Erholung von der Betäubung wurden in Salzlösung aufgelöste Pharmaka durch eine in die Oberschenkelvene eingeführte Kanüle intravenös zugeführt. Die verwendeten Pharmaka waren Caroverinfumarat und Referenz-Agenzien, nämlich Mephenesin und Tolperison-Hydrochlorid. Das Ergebnis nach Zuführung von 2 mg/kg Caroverinfumarat sind in der nachstehend eingefügten Tabelle wiedergegeben.

[4] = Acute toxicity (LD50) in male mice; settings: mouse, in vivo
From the text: Untersuchung der akuten Toxizität an männlichen Mäusen
Es wurden folgende Standard-Grenzwerte LDSO (mg/kg) ermittelt:
Toxizitätsuntersuchung an männlichen Mäusen

Thrombozytenaggregation [5] = assay: Collagen-induced platelet aggregation, same method on human blood preparations; type: cell-based, menschlichem Blut; settings: same method as with rabbit plasma
Herzfrequenz = assay: Clinical study: heart rate under stepwise i.v. dosing, treatment groups A, B, C; type: in vivo, Menschen
From the text: • a) Anzahl: je 6 Patienten der Gruppen A, B und C. Die Probandenzahl der Gruppe D hängt davon ab […] hoc finden. • b) Die […] des Prüfers. • c) Kontraindikationen […], die nicht für eine klinische Studie mit Ca-Antagonisten geeignet sind, oder unter […] leiden, die die Resultate […]. Die […] 10 und 5' vor Beginn der Medikation. […] Nach Beendigung der Medikation, Nachkontrolle in 10-[…] bis ca. 4 Stunden nach Beginn der Medikation. Abbruch der Medikation bei: • 1) AV-Block 1. […] In einem ersten Schritt wurden die Zeitreihen (Herzfrequenz-Mittelwerte und Streuungen) je Behandlungsgruppe einzeln berechnet und graphisch dargestellt (s. Abbildung und […], die […] auch […] und der 3 Stunden Nachbeobachtung unterscheiden. Es ist ebenfalls festzuhalten, dass die Werte zu Beginn der Applikation gegenüber den Vorwerten durchwegs erhöht sind. Um die Herzfrequenz-Verläufe […] zu […] Differenzen der Mittelwerte zu jedem […] zu den Vorwerten als auch zum Wert bei […] und […] - unter […] und […] - auf Signifikanz geprüft.

[6] = test system: Patienten mit Arrhythmia absoluta
Experimental: Bei insgesamt 6 Patienten (5♀, 1 ♂) mit Arrhythmia absoluta wurden innerhalb 3 - 5 Min. 200 mg Caroverinfumarat i.v. verabreicht. […] Mittleres Alter der Probanden war 65 (+6/-11) Jahre. Registriert wurden EKG (Frequenz) und Blutdruck (Riva-Rocci) bis max. 13 Minuten nach Injektionsbeginn. Die Min.-Frequenz ermittelte sich aus 10 aufeinanderfolgenden QRS-Komplexen.

Hunden = assay: Coronary sinus outflow, systemic blood pressure and heart rate in dogs; type: in vivo; settings: dogs, 0,03-3,0 mg/kg, effect increases with dose (Fig. 4-6)
Experimental: Es wurde der coronare Sinus-Ausfluss(CSF), der System-Blutdruck (SEP) und die Herzfrequenz (HR) an Hunden untersucht. Für den coronaren Sinus-Ausfluss wurde die in Clin. Pharmacol. Physiol., 5, 107 - 115, 1978, Australien,beschriebene Untersuchungsmethode angewendet.
Zeitdiagramme der genannten Messgrössen SBP (mmHg), CSF (ml/min) und HR (min ) wurde für […] verschiedene Dosierungen von Caroverinfumarat, nämlich 0,03, 0,1, 0,3, 1,0 und 3,0 mg/kg (bezogen auf das Körpergewicht) aufgenommen. Die Diagramme für die drei erstgenannten Dosierungswerte sind in Fig. 4 und diejenigen für die beiden letztgenannten Dosierungswerte in Fig. 5 bzw. Fig. 6 wiedergegeben. Der Zuführungszeitpunkt der Wirksubstanz ist in den Diagrammen gemäss Fig. 4 durch das Zeichen "o" markiert, während in den Diagrammen gemäss Fig. 5 und 6 das Zuführungsintervall jeweils durch einen Horizontalstrich unterhalb der CSF-Messkurve angegeben ist.

[7] = test system: isolierte, nach Langendorff perfundierte Meerschweinchenherz; assay: Isolated Langendorff-perfused guinea pig heart: coronary flow, contraction amplitude, heart rate; design: species or system Meerschweinchen; settings: for Herzfrequenz: in all experiments; for Coronardurchfluss: single doses Caroverin 1-1000 ug, Theophyllin 10-1000 ug, 1000 Theophyllin about equal to 100 Caroverin
From the text: Meerschweinchen wurden durch Genickschlag getötet, der Thorax eröffnet, der Herzbeutel aufgeschnitten, die Aorta mit einem Faden angeschlungen und in der pars ascendens angeschnitten. Nach Einbinden einer Glaskanüle in die Aorta wurde die aorta pulmonalis eröffnet und anschliessend das Coronargefässsystem durch die Aortenkanüle unter leichten Druck mit einer Spitze durchgespült. Nach Dulchirennung aller anhängenden Gefässe wurde das Herz an der Aortenkanüle in die feuchte Kammer einer modifizierten Langendorff-Apparatur gehängt und mit carbogengesättigter Tyrodelösung von 37^uC mit einem Druck von 55 cm H20 perfundiert. An der Herzspitze wurde eine Serre fine angebracht, die über einen Faden mit einem zweiarmigen Hebel verbunden war, der die Kontraktionsamplitude auf einem Russkymographen aufzeichnete. Alle Herzen waren mit 4 g belastet. Der Schreibhebel passierte bei seinen Ausschlägen die Lichtschranke einer Fotozelle. Dadurch konnte die Herzfrequenz über einen Totalisator (nach FLEISCH, Firma B. Braun, Melsungen) registriert werden. Die aus dem rechten Vorhof frei abfliessende Perfusionslösung tropfte auf einen elektrischen Kontakt. Die Tropfenzahl wurde mittels eines zweiten Totalisators aufgezeichnet,und nach Eichung in ml/min der Coronardurchfluss bestimmt.
Nach Fertigstellung der Präparate wurde bis zum Versuchsbeginn 45 Min. gewartet. Nach dieser Zeit hatten Kontaktionsamplitude, Frequenz und Coronardurchblutung ein konstantes Niveau erreicht.
Caroverin wurde in Einzeldosen von 1, 10, 100 sowie 1000 ug verabreicht. Theophyllin wurde in Dosen von 10, 100 sowie 1000 ug gegeben. In allen Versuchen wurden Caroverin und Theophyllin abwechselnd verabreicht, wobei jeweils eine Zeitspanne von 5 Min. zwischen zwei Einzelinjektionen lag. Alle Injektionsvolumina betrugen 0.1 ml.
Die Effekte der Substanzen wurden ermittelt,indem in jedem Versuch bei jeder Einzeldosis die maximalen Zu- bzw. Abnahmen der entsprechenden Parameter gegenüber dem jeweiligen Ausganswert bestimmt und diese Einzeleffekte gemittelt wurden. Statistische Signifikanzberechnungen erfolgten nach dem t-Test (student's-Test).

[8] = test system: glatten Coronar-Muskulatur; assay: k-Strophanthin-induced tone of pig coronary smooth muscle; design: species or system Schwein; settings: higher concentration of k-Strophanthin, partial restitution by raised extracellular Ca++ (Fig. 15)
From the text: Teilweise Restitution des Coronartonus durch Steigerung der extra-cellulären Ca^++-Konzentration.

[9] = test system: K^+-Kontraktur isolierter Coronararterienstreifen; assay: K+ contracture of isolated pig coronary artery strips; design: species or system Schwein
From the text: Partielle Restitution der mechanischen Spannungsentwicklung durch Extra-Calcium.

Ca^++-Einstrom = assay: Isolated guinea pig papillary muscle: intracellular action potentials and isometric mechanograms; design: species or system Meerschweinchen
From the text: Die Aktionspotentiale […] an ein und derselben Myocardfaser gewonnen. Die einzelnen Konzentrationen kamen jeweils für die Dauer von 40 Minuten zur Anwendung.

[10] = group B, ca. 70 min after start of application
[11] = group C, 2 1/2 to 3 h after start of application

Compound: CCN(CC)CCn1c(=O)c(Cc2ccc(OC)cc2)nc2ccccc21 [Caroverin-Nicotinat]
- Akute Toxizität, observation (Maus; 300 mg/kg): keine Auffälligkeiten
- Akute Toxizität, observation (Maus; ip, 100 mg/kg): Abnahme des Muskeltonus in den Extremitäten, sowie eine leichte Abnahme des Haltegriffes
- Letale Dosis (Maus): 200 mg/kg
- diuretischer Wirkungs-Score (Ratten; 20 mg/kg): 2.6
- inhibition at 10 µg/mL (Thrombozytenaggregation [1]; Oryctolagus cuniculus, Platelet, in vitro, rabbit, 10 mcg/ml, read-out: Hemmung der collagen-induzierten Plättchenaggregation): 100%
- Perfusions-Fliessrate [2]: eindeutige Zunahme der Perfusions-Fliessrate
- Hemmung des verwendeten Agonisten (Atropin) (Agonisten (Atropin)): > 80%

Compound: Cc1ccccc1OCC(O)CO (centres unmarked) [Mephenesin]
- ED50 [3]: 25 mg/kg
- Zeit für 50%ige Erholung [3]: ca 13 min.

Compound: CCN(CC)CCn1c(=O)c(Cc2ccc(OC)cc2)nc2ccccc21 [Caroverinfumarat]
- LD50 ([4]; intravenous): 39 mg/kg
- LD50 ([4]; ip, intraperitoneal): 138 mg/kg
- LD50 ([4]; oral): 800 mg/kg
- Aggregations-Hemmeffekt (Thrombozytenaggregation [5]): Aehnliche Ergebnisse
- Aggregations-Hemmeffekt (Thrombozytenaggregation [1]; rabbit platelet-rich plasma, collagen from bovine Achilles tendon, several micromolar concentrations (Fig. 1-3), intensity between Benzyclanfumarat and Aspirin): eindeutigen Hemmungseffekt
- mittlere Herzfrequenz, % of value before application (Herzfrequenz; group A (heart-healthy), end of application after 40 min): 86%
- mittlere Herzfrequenz (Herzfrequenz; group A (heart-healthy), end of application after 40 min, 20 mg i.v. then 10 mg every 4 min up to 120 mg, baseline 72/Min.): 62 min⁻¹
- mittlere Herzfrequenz, % of value before application (Herzfrequenz; group A, 2 h after start of application): 79%
- mittlere Herzfrequenz (Herzfrequenz; group A, 2 h after start of application, lasting to end of 4 h observation): 57 min⁻¹
- mittlere Herzfrequenz, % of value before application (Herzfrequenz; group B (coronary heart disease), end of application): 90%
- mittlere Herzfrequenz (Herzfrequenz; group B (coronary heart disease), end of application, baseline 77/Min.): 69 min⁻¹
- mittlere Herzfrequenz (Herzfrequenz; [10]): 65 min⁻¹
- mittlere Herzfrequenz, % of value before application (Herzfrequenz; [10]): 84%
- mittlere Herzfrequenz, % of value before application (Herzfrequenz; group C (diseased conduction system), end of application): 86%
- mittlere Herzfrequenz (Herzfrequenz; group C (diseased conduction system), end of application, baseline 66/Min.): 57 min⁻¹
- mittlere Herzfrequenz (Herzfrequenz; [11]): 54 min⁻¹
- mittlere Herzfrequenz, % of value before application (Herzfrequenz; [11]): 82%
- ED50 [3]: 1.5 mg/kg
- Zeit für 50%ige Erholung [3]: > 30 min
- anemische Decerebrationsstarre ([3]; stronger and longer lasting than Tolperison-Hydrochlorid and Mephenesin): unverzüglich aufgehoben
- Vorhofflimmer-Frequenz ([6]; 6 patients, 200 mg i.v.): ohne messbare Veränderung
- rhythmisierender Effekt ([6]; 6 patients, 200 mg i.v.): nicht nachgewiesen
- maximale systolische Blutdruckabfall ([6]; 6 patients, 200 mg i.v. within 3-5 min): 29,3 (+ 8,2/-9,3) %
- diastolische Blutdruckabfall ([6]; mean of 6 patients, 200 mg i.v. within 3-5 min): 26,6 (+ 10,9/-11,6) %
- maximale Frequenz-Abfall im Vergleich zum Ausgangswert ([6]; mean of 6 patients, 200 mg i.v. within 3-5 min, up to 13 min after start of injection): 26,6 (+ 7,2/-4,7) %
- Herzfrequenz (HR) (Hunden): Herabsetzung der Herzfrequenz
- System-Blutdruck (SBP) (Hunden): Herabsetzung des System-Blutdrucks
- coronarer Sinus-Ausfluss (CSF) (Hunden): Rasch zunehmende und langsam abklingende Zunahme des coronaren Sinus-Ausflusses

Compound: Cn1c(=O)c2[nH]cnc2n(C)c1=O [Theophyllin, reference compound]
- Herzfrequenz ([7]; 1000pg as printed): die Herzfrequenz vorübergehend steigerte
- Kontraktionsamplitude ([7]; doses used (10, 100, 1000 ug)): keine signifikanten Aenderungen der Kontraktionsamplitude
- Coronardurchfluss [7]: steigernde Wirkung auf den Coronardurchfluss

Compound: CC(=O)S[C@@H]1CC2=CC(=O)CC[C@]2(C)[C@H]2CC[C@@]3(C)[C@@H](CC[C@@]34CCC(=O)O4)[C@H]12 [Spironolacton, reference compound]
- diuretischer Wirkungs-Score (Ratten): 3.6

Compound: CCN(CC)CCn1c(=O)c(Cc2ccc(OC)cc2)nc2ccccc21 [Caroverin, 1-(2-diäthylaminoäthyl)-3-(p-methoxybenzyl)-1,2-dihydroquinoxalon-2]
- tonussteigernde Effekte von k-Strophanthin [8]: Neutralisation der tonussteigernden Effekte
- inhibition at 0.25 µg/mL ([9]; Sus scrofa, pig, 0,25 mg Caroverin/l (Fig. 13 and 14), read-out: elektromechanische Entkoppelung K^+-depolarisierter Coronararterienstreifen): ~50%
- K^+-Kontraktur isolierter Coronararterienstreifen ([9]; pig, rising concentrations 0,05, 0,1 and 0,5 mg/l, partial restitution by extra calcium (Fig. 13)): Hemmungen der K^+-Kontraktur
- K^+-Kontraktur isolierter Coronararterien-Streifen ([9]; pig, rising concentrations 1,0, 2,0 and 5,0 mg/l, partial restitution by extra calcium at 1 mg/l (Fig. 14)): Hemmung der K^+-Kontraktur
- Herzfrequenz ([7]; 100 µg): langanhaltenden frequenzsenkenden Effekt
- Kontraktionsamplitude ([7]; 100 µg, p < 0.01): verminderte die Kontraktionsamplitude signifikant
- Coronardurchfluss [7]: dosisabhängige, coronardurchflusssteigernde Wirkung
- elektrische Parameter Ca^++-getragener Aktionspotentiale (AP-Amplitude, max. Aufstrichsteilheit, AP-Dauer) und zugehörige Mechanogramme (Ca^++-Einstrom; about the same concentration range (10 mg/l)): hemmt
- Blockade des Ca^++-Einstroms während der Erregung (Ca^++-Einstrom; electrically stimulated isolated guinea pig papillary muscle, 10 mg Caroverin/l (Fig. 12)): ~50%
- transmembranäre Na- und K^+-Fluxe (Ca^++-Einstrom; isolated guinea pig papillary muscle, 10 mg Caroverin/l): ohne die transmembranären Na - und K^+-Fluxe zu reduzieren

Compound: CCN(CC)CCn1c(=O)c(Cc2ccc(OC)cc2)nc2ccccc21 [Caroverin-Theophyllinat]
- Akute Toxizität, observation (Maus; 300 mg/kg): keine Auffälligkeiten
- Akute Toxizität, observation (Maus; ip, 100 mg/kg): leichte Muskelrelaxation
- Letale Dosis (Maus): 200 mg/kg
- diuretischer Wirkungs-Score (Ratten; 20 mg/kg): 2.8
- Perfusions-Fliessrate [2]: eindeutige Zunahme der Perfusions-Fliessrate
- Hemmung des verwendeten Agonisten (Atropin) (Agonisten (Atropin)): > 80%

Compound: Cc1ccc(C(=O)C(C)CN2CCCCC2)cc1 (centres unmarked) [Tolperison-Hydrochlorid]
- ED50 [3]: 4 mg/kg
- Zeit für 50%ige Erholung [3]: ca. 10 min.
